Measurements taken from PubChem BioAssay AID328 (DTP/NCI, 2004).
Toxic doses and inconclusive results are not listed.

Tested on: BDF1 mice, P388 leukemia ip, median survival T/C
Test: NCI In Vivo Anticancer Drug Screen. Data for tumor model P388 Leukemia (intraperitoneal) in B6D2F1 (BDF1) mice
Details: endpoint: median survival time, higher = longer survival
Summary of the method: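 Compound-treated tumour-bearing mice were compared with vehicle-treated controls. Survival was recorded, and the value is the treated-group measurement divided by the control-group measurement (T/C).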

[1] = dose: 100.0 mg/kg/injection, schedule: Q01DX009 (ip), vehicle: Klucel (hydroxypropylcellulose) (HPC)
[2] = dose: 100.0 mg/kg/injection, schedule: Q04DX003 (ip), vehicle: Klucel (hydroxypropylcellulose) (HPC)
[3] = dose: 200.0 mg/kg/injection, schedule: Q01DX009 (ip), vehicle: Klucel (hydroxypropylcellulose) (HPC)
[4] = dose: 200.0 mg/kg/injection, schedule: Q04DX003 (ip), vehicle: Klucel (hydroxypropylcellulose) (HPC)
[5] = dose: 100.0 mg/kg/injection, schedule: Q04DX003 (ip), vehicle: saline

## Cc1cc(=O)c2cccc(C)c2[nH]1
dose: 50.0 mg/kg/injection, schedule: Q01DX009 (ip), vehicle: Klucel (hydroxypropylcellulose) (HPC)
  T/C: 96 % of control
[1]
  T/C: 96 % of control
[2]
  T/C: 95 % of control
[3]
  T/C: 92 % of control
[4]
  T/C: 91 % of control

## CCC(C)C(=O)OC1C(=O)OC2CC3C(C)=CC(=O)C(O)C3(C)C3C4(O)OCC23C1C(C)C4O (centres undefined)
dose: 0.06 mg/kg/injection, schedule: Q01DX009 (ip), vehicle: saline with Tween-80
  T/C: 117 % of control
dose: 0.25 mg/kg/injection, schedule: Q01DX009 (ip), vehicle: saline
  T/C: 121 % of control
dose: 1.0 mg/kg/injection, schedule: Q01DX009 (ip), vehicle: saline
  T/C: 111 % of control
dose: 2.0 mg/kg/injection, schedule: Q01DX009 (ip), vehicle: saline
  T/C: 124 % of control
dose: 8.0 mg/kg/injection, schedule: Q01DX009 (ip), vehicle: saline with Tween-80
  T/C: 95 % of control

## CCC(C)(O)C#CC(C)(O)CC (centres undefined)
[5]
  T/C: 91 % of control
dose: 200.0 mg/kg/injection, schedule: Q04DX003 (ip), vehicle: saline
  T/C: 91 % of control
dose: 400.0 mg/kg/injection, schedule: Q04DX003 (ip), vehicle: saline
  T/C: 87 % of control

## O/N=C/c1ccccc1O.O/N=C/c1ccccc1O.[Cu]
dose: 6.25 mg/kg/injection, schedule: Q04DX003 (ip), vehicle: saline with Tween-80
  T/C: 118 % of control
dose: 12.5 mg/kg/injection, schedule: Q04DX003 (ip), vehicle: saline with Tween-80
  T/C: 109 % of control
dose: 16.5 mg/kg/injection, schedule: Q04DX003 (ip), vehicle: saline with Tween-80
  T/C: 114 % of control
dose: 25.0 mg/kg/injection, schedule: Q04DX003 (ip), vehicle: saline with Tween-80
  T/C: 123 % of control

## Cc1ccc2c(ccc(/C=C/c3ccc(O)c4ncccc34)[n+]2C)c1
dose: 75.0 mg/kg/injection, schedule: Q01DX009 (ip), vehicle: Klucel (hydroxypropylcellulose) (HPC)
  T/C: 104 % of control

## COC(=O)C/C(=C\c1ccc(OC)c(OC)c1)C(=O)OC
[1]
  T/C: 109 % of control
[2]
  T/C: 104 % of control
[3]
  T/C: 113 % of control
[4]
  T/C: 100 % of control
dose: 400.0 mg/kg/injection, schedule: Q01DX009 (ip), vehicle: Klucel (hydroxypropylcellulose) (HPC)
  T/C: 100 % of control
dose: 400.0 mg/kg/injection, schedule: Q04DX003 (ip), vehicle: Klucel (hydroxypropylcellulose) (HPC)
  T/C: 100 % of control

## CN(C)C(=O)c1cccc(COc2ccc([N+](=O)[O-])cc2Cl)c1
dose: 100.0 mg/kg/injection, schedule: Q01DX001 (ip), vehicle: Klucel (hydroxypropylcellulose) (HPC)
  T/C: 109 % of control
dose: 132.0 mg/kg/injection, schedule: Q01DX009 (ip), vehicle: saline sonified
  T/C: 91 % of control
dose: 200.0 mg/kg/injection, schedule: Q01DX001 (ip), vehicle: Klucel (hydroxypropylcellulose) (HPC)
  T/C: 109 % of control
dose: 200.0 mg/kg/injection, schedule: Q01DX009 (ip), vehicle: saline sonified
  T/C: 87 % of control
dose: 300.0 mg/kg/injection, schedule: Q01DX009 (ip), vehicle: saline sonified
  T/C: 87 % of control
dose: 400.0 mg/kg/injection, schedule: Q01DX001 (ip), vehicle: Klucel (hydroxypropylcellulose) (HPC)
  T/C: 104 % of control

## COc1ccc2c(Nc3ccc(NS(C)(=O)=O)cc3)c3ccccc3nc2c1
dose: 0.66 mg/kg/injection, schedule: Q01DX009 (ip), vehicle: saline with Tween-80
  T/C: 169 % of control
dose: 1.0 mg/kg/injection, schedule: Q01DX009 (ip), vehicle: saline with Tween-80
  T/C: 194 % of control
dose: 1.5 mg/kg/injection, schedule: Q01DX009 (ip), vehicle: saline with Tween-80
  T/C: 201 % of control
dose: 2.66 mg/kg/injection, schedule: Q04DX003 (ip), vehicle: saline with Tween-80
  T/C: 150 % of control
dose: 4.0 mg/kg/injection, schedule: Q04DX003 (ip), vehicle: saline with Tween-80
  T/C: 163 % of control
dose: 6.0 mg/kg/injection, schedule: Q04DX003 (ip), vehicle: saline with Tween-80
  T/C: 172 % of control
dose: 9.0 mg/kg/injection, schedule: Q04DX003 (ip), vehicle: saline with Tween-80
  T/C: 168 % of control
dose: 22.0 mg/kg/injection, schedule: Q04DX003 (ip), vehicle: saline with Tween-80
  T/C: 200 % of control
dose: 25.0 mg/kg/injection, schedule: Q04DX003 (ip), vehicle: saline
  T/C: 254 % of control
dose: 33.0 mg/kg/injection, schedule: Q04DX003 (ip), vehicle: saline with Tween-80
  T/C: 227 % of control
dose: 50.0 mg/kg/injection, schedule: Q04DX003 (ip), vehicle: saline with Tween-80
  T/C: 231 % of control
dose: 50.0 mg/kg/injection, schedule: Q04DX003 (ip), vehicle: saline
  T/C: 240 % of control
dose: 75.0 mg/kg/injection, schedule: Q04DX003 (ip), vehicle: saline with Tween-80
  T/C: 281 % of control
[5]
  T/C: 104 % of control
